Patent US20250163016A1, “PYRIDINE DERIVATIVE, PREPARATION METHOD THEREFOR AND USE THEREOF” (CHENGDU EASTON BIOPHARMACEUTICALS CO., LTD., priority 2022, published 2025)

Columns and labels:
[1] = Liver microsome stability, monkeys; format: in vitro ADME; settings: Monkeys liver microsomes; for CLint scaled / half-life: monkey; for half-life: NADPH, 37° C.
Procedure: (§1) A liver microsome in-vitro warm incubation method used liver microsomes, supplemented by an NADPH regeneration system, to simulate physiological environmental conditions in vitro for metabolic reaction, after a certain period of reaction, LC-MS/MS was used to determine prototype drugs and metabolites in a warm incubation solution, and the content was preliminarily analyzed. Studying the liver microsome stability of drugs in different species was crucial for understanding a change process of the drugs in vivo.
(§2) 2.1. Liver Microsomes in Different Species Including Rats, Mice, Humans, Dogs and Monkeys
(§3) According to the requirements of the instructions of a Phase I Metabolic Stability Kit, a liver microsome incubation system was prepared, and according to a sequence, a mixed system of a PBS, liver microsomes, an NADPH regeneration system solution A and an NADPH regeneration system solution B, as well as substances to be tested were added in sequence respectively, and were incubated at 37° C. Each sample was parallelized 3 times, with a sample without an NADPH generation system as a negative control, after 0, 5, 15, 30, 45, and 60 min, equal volumes of pre-cooled acetonitrile were added to terminate the reaction respectively, and the prototype drug content in a warm incubation solution was determined by LC-MS/MS.

[2] = Liver microsome stability, rats; format: in vitro ADME; settings: Rats liver microsomes; for CLint scaled / half-life: rat; for half-life: NADPH, 37° C.
Procedure: as §1, §2, §3

[3] = Liver microsome stability, dogs; format: in vitro ADME; settings: Dogs liver microsomes; for CLint scaled / half-life: dog; for half-life: NADPH, 37° C.
Procedure: as §1, §2, §3

[4] = Pharmacokinetics of oral administration of rats; format: in vivo; settings: male, rat, SD rats, p.o. 5.0 mg/kg, plasma
Procedure: With SD rats as tested animals, blood drug concentrations in plasma at different moments after oral administration of the compounds of the present application by the rats in a clarification kit mode were determined using an LC-MS/MS method. Pharmacokinetic parameters of the compounds of the present application in the rats were obtained, and pharmacokinetic characteristics of the compounds were studied.
• SD rats, male, weight 180-220 g, 3 rats per group. The animals were fed in an animal house after being purchased, an adaptation period was at least 3 days, and they were used for tests after passing quarantine.
According to Table 4, each group of rats was given the corresponding tested drugs or positive drugs by gavage, before administration, and 15 min, 30 min, 1 h, 2 h, 4 h, 6 h, 8 h, and 24 h after administration, a fixed volume of blood was collected through eye sockets and placed in an EDTA-K2 anticoagulant tube, centrifuging was carried out at 8000 rpm for 1 min to separate plasma into a centrifuge tube, and the plasma was frozen in a −20° C. refrigerator.
The plasma at each time point stored at −20° C. was taken out, then acetonitrile was added, after whirling at 1500 revolutions for 2 min, centrifuging was carried out for 15 min (3500 r/min), and a fixed volume of solution supernatant was taken for LC-MS/MS analysis.
Non-compartment model fitting was carried out on pharmacokinetic behaviors of the tested compounds, and DAS3.31 software was adopted to calculate main pharmacokinetic parameters (T1/2, Tmax, Cmax, AUClast, etc.).

[5] = Liver microsome stability, mice; format: in vitro ADME; settings: Mice liver microsomes; for CLint scaled / half-life: mouse; for half-life: NADPH, 37° C.
Procedure: as §1, §2, §3

[6] = Liver microsome stability, humans; format: in vitro ADME; settings: Humans liver microsomes; for CLint scaled / half-life: human; for half-life: NADPH, 37° C.
Procedure: as §1, §2, §3

NCI-H1417 cells = assay: NCI-H1417 cell proliferation inhibition test (Celltiter GLO); format: cell-based; settings: Homo sapiens, 168 h, NCI-H1417, 7 days culture
Procedure: Research had confirmed that LSD1 played a crucial role in the occurrence process of various types of cancers, including small cell lung cancer (SCLC) and acute myeloid leukemia (AML). Therefore, a human small cell lung cancer (NCI-H1417) cell line was used to determine the ATP content in cells at different drug concentrations using a Celltiter GLO assay kit, and the cell activity was reflected by luminescence intensity. IC50 values of different compounds on the NCI-H1417 cells were calculated using inhibition rates. The inhibitory effects of the compounds in the present application on the proliferation of the NCI-H1417 cells were studied to evaluate the anti-tumor efficacy of the tested compounds at the cellular level.
• Day 1 Cells were seeded into the 384-well cell culture plate and placed in a 37° C. 5% CO2 cell incubator to be cultured overnight. • Day 0 The compound to be tested was prepared into a 10 mM mother liquid using DMSO, starting from 1 μM, diluted by 3 folds, with 10 concentration points and double duplicate wells. A diluted compound was added into the 384-well cell culture plate and placed in a 37° C. 5% CO2 cell incubator to be cultured for 7 days. The concentration of the DMSO in a cell culture system was 0.1%. • Day 7 Celltiter GLO was added into the 384-well cell culture plate according to a volume ratio of culture system:Celltiter GLO=1:1, light-shielded oscillation was carried out on a plate oscillator for 3 min, then the cell culture plate was placed at the room temperature for 30 min with light shielded, and the plate was read using a multifunctional microplate reader chemical light emitting module.
An inhibition percentage was calculated by utilizing luminescence intensity of the above DMSO group (with DMSO added), test group (with the tested compound and a positive control solution added) and blank group (not treating cells), a calculation formula being
Using a logarithm of the concentration as an X axis and the percentage inhibition rate as a Y axis, a dose-response curve was fitted using a formula log(inhibitor) vs. response-Variable slope (Four parameters) of analysis software Graphpad Prism 8 to obtain the IC50 value of each compound on NCI-H1417 proliferation inhibition activity.

| SMILES | Remaining (T = 60 min) [1] | CLint scaled [1] | half-life [1] | Remaining (T = 60 min) [2] | CLint scaled [2] | half-life [2] | Remaining (T = 60 min) [3] | CLint scaled [3] | half-life [3] | AUC(0-t) [4] | Cmax [4] | Tmax [4] | half-life [4] | Remaining (T = 60 min) [5] | CLint scaled [5] | half-life [5] | Remaining (T = 60 min) [6] | CLint scaled [6] | half-life [6] | IC50 (NCI-H1417 cells) |
| --- | --- | --- | --- | --- | --- | --- | --- | --- | --- | --- | --- | --- | --- | --- | --- | --- | --- | --- | --- | --- |
| COc1ccc(-c2c(-c3ccc(C#N)c(F)c3)nc(N3CCC(N)CC3)n(C)c2=O)cc1F [CC-90011, reference compound] | 56.8% | 25 mL/min/kg | 1.25 h | 58.6% | 31.2 mL/min/kg | 1.33 h | 76.6% | 15.8 mL/min/kg | 2.1 h | 356 ± 46.5 ng·h/mL | 48.9 ± 12.5 ng/mL | 3.33 ± 2.31 h | 1.44 ± 0.52 h | 72.2% | 42.2 mL/min/kg | 2.17 h | 67.2% | 13.2 mL/min/kg | 1.57 h | 22.9 nM |
| CC(C)(O)Cn1ncc2cc(-c3c(C#N)cc(N4CCC(N)CC4)nc3-c3ccc(C#N)c(F)c3)c(F)cc21 [Compound 16, 6-(4-aminopiperid-1-yl)-2-(4-cyano-3-fluorophenyl)-3-(6-fluoro-1-(2-hydroxyl-2-methylpropyl)-1H-indazol-5-yl)isonicotinonitrile] | 62.0% | 19.2 mL/min/kg | 1.62 h | 72.1% | < 17.3 mL/min/kg | > 2.42 h | 76.4% | < 13.8 mL/min/kg | > 2.42 h | 561 ± 347 ng·h/mL | 69.9 ± 33.5 ng/mL | 4 h | 3.46 ± 0.02 h | 77.8% | < 38 mL/min/kg | > 2.42 h | 70.8% | < 8.6 mL/min/kg | > 2.42 h | 2.79 nM |
| CC(C)(O)Cn1nc(F)c2cc(-c3c(C#N)cc(N4CCC(N)CC4)nc3-c3ccc(C#N)c(F)c3)c(F)cc21 [Compound 36, 6-(4-aminopiperid-1-yl)-2-(4-cyano-3-fluorophenyl)-3-(3,6-difluoro-1-(2-hydroxyl-2-methylpropyl)-1H-indazol-5-yl)isonicotinonitrile] | 72.1% | 16.9 mL/min/kg | 1.84 h | 76.1% | < 17.3 mL/min/kg | > 2.42 h | 76.3% | < 13.8 mL/min/kg | > 2.42 h | 769 ± 361 ng·h/mL | 100 ± 54.4 ng/mL | 4.67 ± 1.15 h | 3.57 ± 0.34 h | 75.5% | < 38 mL/min/kg | > 2.42 h | 81.7% | < 8.6 mL/min/kg | > 2.42 h | 4 nM |
